ChEMBL document CHEMBL4483862, “Open-source discovery of chemical leads for next-generation chemoprotective antimalarials” (2018)

Tested on: Plasmodium berghei
Assay: Luciferase/luciferin-expressing antifolate-resistant parasites were used to infect a culture of HepG2 cells that were pre-incubated with compounds. Infected hepatocytes emit light due to the luciferase reaction. Assay results are presented as the percent inhibition of light emission compared to control. […]
Type: functional
Details: sporozoite; for IC90: read-out: LUCIFERASE INFECTION ASSAY - IC90

COc1ccccc1C(CNC(=O)c1ccc(-c2ccccc2Cl)o1)N1CCCC1 (stereo not given)
IC50 (PBLUC_HILL_SLOPE 3.28, PBLUC_R_SQUARED 0.202, read-out: LUCIFERASE INFECTION ASSAY - IC50): 4.98 µM
IC90: 9.73 µM

NC(Cc1ccc(C(F)(F)F)cc1)c1csc(Nc2cc(Oc3ccccc3)ncn2)n1 (stereo not given)
IC50 (PBLUC_HILL_SLOPE 3.27, PBLUC_R_SQUARED 0.275, read-out: LUCIFERASE INFECTION ASSAY - IC50): 4.26 µM
IC90: > 7.21 µM

CNC(=S)Nc1cc(C(F)(F)F)cc(C(F)(F)F)c1
IC50 (PBLUC_HILL_SLOPE 3.27, PBLUC_R_SQUARED 0.572, read-out: LUCIFERASE INFECTION ASSAY - IC50): 4.26 µM
IC90: 8.33 µM

CCN(CC)S(=O)(=O)c1ccc(C(C)NC(=O)c2nn(CC)c(=O)c3ccccc23)cc1 (stereo not given)
IC50 (PBLUC_HILL_SLOPE 3.22, PBLUC_R_SQUARED 0.606, read-out: LUCIFERASE INFECTION ASSAY - IC50): 2.02 µM
IC90: 4.01 µM

CSc1[nH]c(=O)c(C(=O)NCCc2c(C)cc(C(C)(C)C)cc2C)cc1C#N
IC50 (PBLUC_HILL_SLOPE 3.23, PBLUC_R_SQUARED 0.351, read-out: LUCIFERASE INFECTION ASSAY - IC50): 3.69 µM
IC90: 7.29 µM

COCCCN1C(=O)N(Cc2ccccc2)C(=O)C12CCN(Cc1cccc(-c3ccco3)c1)CC2
IC50 (PBLUC_HILL_SLOPE 3.26, PBLUC_R_SQUARED 0.648, read-out: LUCIFERASE INFECTION ASSAY - IC50): 4.58 µM
IC90: > 6.77 µM

Cc1cc(OCCCC(=O)NC2CCN(Cc3ccccc3)CC2)ccc1Cl
IC50 (PBLUC_HILL_SLOPE 3.22, PBLUC_R_SQUARED 0.455, read-out: LUCIFERASE INFECTION ASSAY - IC50): 5.35 µM
IC90: > 10 µM

Cc1ccc(S(=O)(=O)Nc2ccc(Nc3nccn4c(-c5ccccc5N(C)C)cnc34)cc2)cc1
IC50 (PBLUC_HILL_SLOPE 3.26, PBLUC_R_SQUARED 0.262, read-out: LUCIFERASE INFECTION ASSAY - IC50): 3.47 µM
IC90: > 6.62 µM

Cc1cc2oc(=O)cc(CN(Cc3ccc(C(=O)NC4CC4)cc3)Cc3ccco3)c2cc1C
IC50 (PBLUC_HILL_SLOPE 3.23, PBLUC_R_SQUARED 0.675, read-out: LUCIFERASE INFECTION ASSAY - IC50): 0.928 µM
IC90: 1.83 µM

Cc1onc(-c2ccccc2Cl)c1NC(=O)Nc1cc(C(F)(F)F)cc(C(F)(F)F)c1
IC50 (PBLUC_HILL_SLOPE 3.23, PBLUC_R_SQUARED 0.494, read-out: LUCIFERASE INFECTION ASSAY - IC50): 3.3 µM
IC90: 6.51 µM

c1ccc(CCNCc2cn(-c3ccccc3)nc2-c2cccs2)cc1
IC50 (PBLUC_HILL_SLOPE 3.19, PBLUC_R_SQUARED 0.352, read-out: LUCIFERASE INFECTION ASSAY - IC50): 9.18 µM
IC90: > 10 µM

Cc1nn(-c2ccccc2Cl)c(Cl)c1/C=N/Nc1ccccc1Cl
IC50 (PBLUC_HILL_SLOPE 3.24, PBLUC_R_SQUARED 0.794, read-out: LUCIFERASE INFECTION ASSAY - IC50): 3.72 µM
IC90: 7.32 µM

C=c1onc(-c2c(F)cccc2Cl)c1=C1NC(c2ccccn2)=NO1
IC50 (PBLUC_HILL_SLOPE 3.2, PBLUC_R_SQUARED 0.36, read-out: LUCIFERASE INFECTION ASSAY - IC50): 6.04 µM
IC90: > 9.25 µM

N#Cc1ccc(C(=O)Nc2cccc(Oc3ccccc3)c2)cc1
IC50 (PBLUC_HILL_SLOPE 3.19, PBLUC_R_SQUARED 0.12, read-out: LUCIFERASE INFECTION ASSAY - IC50): 6.33 µM
IC90: > 10 µM

O=C(/C=C/c1cccs1)N1CCN(S(=O)(=O)c2c(Cl)cc(Br)cc2Cl)CC1
IC50 (PBLUC_HILL_SLOPE 3.28, PBLUC_R_SQUARED 0.115, read-out: LUCIFERASE INFECTION ASSAY - IC50): 5.38 µM
IC90: > 10 µM

FC(F)(F)c1cccc(-c2noc(CCc3nc4ccccc4[nH]3)n2)c1
IC50 (PBLUC_HILL_SLOPE 3.19, PBLUC_R_SQUARED 0.657, read-out: LUCIFERASE INFECTION ASSAY - IC50): 3.63 µM
IC90: 7.22 µM

Cn1c(-c2c(-c3ccccc3)n[nH]c2-c2ccc([N+](=O)[O-])cc2)nc2ccccc21
IC50 (PBLUC_HILL_SLOPE 3.22, PBLUC_R_SQUARED 0.201, read-out: LUCIFERASE INFECTION ASSAY - IC50): 4.81 µM
IC90: 9.52 µM

Cn1cc(-c2cnc3cnc(-c4ccc5c(c4)OCO5)cn23)cn1
IC50 (PBLUC_HILL_SLOPE 3.19, PBLUC_R_SQUARED 0.356, read-out: LUCIFERASE INFECTION ASSAY - IC50): 9.57 µM
IC90: > 10.3 µM

Fc1ccc(COc2ccc(Cl)cc2CNCc2ccccn2)cc1
IC50 (PBLUC_HILL_SLOPE 3.23, PBLUC_R_SQUARED 0.405, read-out: LUCIFERASE INFECTION ASSAY - IC50): 6.55 µM
IC90: > 9.25 µM

N#C/C(=C\c1cc(Cl)cc(Cl)c1O)c1ccc([N+](=O)[O-])cc1
IC50 (PBLUC_HILL_SLOPE 3.19, PBLUC_R_SQUARED 0.599, read-out: LUCIFERASE INFECTION ASSAY - IC50): 3.08 µM
IC90: 6.14 µM

Oc1c(C(c2ccc(F)cc2)N2CCCCC2)cc(Cl)c2cccnc12 (stereo not given)
IC50 (PBLUC_HILL_SLOPE 3.21, PBLUC_R_SQUARED 0.483, read-out: LUCIFERASE INFECTION ASSAY - IC50): 6.21 µM
IC90: > 10 µM

O=C(NCCO)c1cccc(-c2ccc3ncc(-c4cccc(OC(F)(F)F)c4)n3n2)c1
IC50 (PBLUC_HILL_SLOPE 3.2, PBLUC_R_SQUARED 0.416, read-out: LUCIFERASE INFECTION ASSAY - IC50): 5.01 µM
IC90: 9.96 µM

O=C(Nc1ccccc1)c1ccc(C2(CNCc3cccnc3)CC2)cc1
IC50 (PBLUC_HILL_SLOPE 3.24, PBLUC_R_SQUARED 0.623, read-out: LUCIFERASE INFECTION ASSAY - IC50): 0.323 µM
IC90: 0.637 µM

CC/C=C1/CC(=O)N(c2ccccc2)C1=O
IC50 (PBLUC_HILL_SLOPE 3.2, PBLUC_R_SQUARED 0.213, read-out: LUCIFERASE INFECTION ASSAY - IC50): 7.15 µM
IC90: 14.2 µM

CNc1ncnc(NNC(=O)Nc2ccc(Cl)cc2)c1[N+](=O)[O-]
IC50 (PBLUC_HILL_SLOPE 3.27, PBLUC_R_SQUARED 0.316, read-out: LUCIFERASE INFECTION ASSAY - IC50): 5.92 µM
IC90: > 9.77 µM

COC(=O)c1c(NC(=O)C2CCOC2)c2cc(NCC(C)(C)C)cnc2n1CCc1c[nH]c2ccccc12 (stereo not given)
IC50 (PBLUC_HILL_SLOPE 3.23, PBLUC_R_SQUARED 0.492, read-out: LUCIFERASE INFECTION ASSAY - IC50): 4.09 µM
IC90: > 6.38 µM

CCOC(=O)c1cc(-c2ccccc2)sc1NC(=O)CSc1nnc(-c2cccnc2)n1-c1ccccc1C
IC50 (PBLUC_HILL_SLOPE 3.21, PBLUC_R_SQUARED 0.715, read-out: LUCIFERASE INFECTION ASSAY - IC50): 6.74 µM
IC90: > 10 µM

CC(C)(C)c1cc2nc(C(F)(F)F)cc(NNC(=O)Nc3ccccc3)n2n1
IC50 (PBLUC_HILL_SLOPE 3.27, PBLUC_R_SQUARED 0.167, read-out: LUCIFERASE INFECTION ASSAY - IC50): 5.36 µM
IC90: > 8.41 µM

COc1ccc(-c2cnc3sc(NCCCO)nn23)cc1OC
IC50 (PBLUC_HILL_SLOPE 3.23, PBLUC_R_SQUARED 0.708, read-out: LUCIFERASE INFECTION ASSAY - IC50): 4 µM
IC90: 7.9 µM

CN1/C(=C\C=N\NC(=O)c2cccs2)C(C)(C)c2ccccc21
IC50 (PBLUC_HILL_SLOPE 3.23, PBLUC_R_SQUARED 0.426, read-out: LUCIFERASE INFECTION ASSAY - IC50): 4.25 µM
IC90: 8.4 µM

Fc1ccc(NC(=S)NC2CC3CC2C2C=CCC32)cc1 (stereo not given)
IC50 (PBLUC_HILL_SLOPE 3.22, PBLUC_R_SQUARED 0.522, read-out: LUCIFERASE INFECTION ASSAY - IC50): 4.11 µM
IC90: 8.13 µM

O=C(/C=C/c1ccc(Cl)c(Cl)c1)NNC(=O)C1COc2ccccc2O1 (stereo not given)
IC50 (PBLUC_HILL_SLOPE 3.24, PBLUC_R_SQUARED 0.588, read-out: LUCIFERASE INFECTION ASSAY - IC50): 4.61 µM
IC90: 9.08 µM

Cc1nn(Cc2ccccc2)c(C)c1C(=O)N1CCN(CCOc2ccc(Cl)cc2)CC1
IC50 (PBLUC_HILL_SLOPE 3.21, PBLUC_R_SQUARED 0.27, read-out: LUCIFERASE INFECTION ASSAY - IC50): 9.94 µM
IC90: > 10 µM

CCCCN=C1NN=C(C23CC4CC(CC(C4)C2)C3)C(C)S1 (stereo not given)
IC50 (PBLUC_HILL_SLOPE 3.27, PBLUC_R_SQUARED 0.411, read-out: LUCIFERASE INFECTION ASSAY - IC50): 4.56 µM
IC90: 8.93 µM

CC1(C)C2CC=C(/C=N/NC(=O)Cn3c(C(F)(F)F)nc4ccccc43)C1C2 (stereo not given)
IC50 (PBLUC_HILL_SLOPE 3.28, PBLUC_R_SQUARED 0.493, read-out: LUCIFERASE INFECTION ASSAY - IC50): 6.15 µM
IC90: > 10 µM

Cc1ccccc1/N=c1\scc(-c2ccc(Cl)cc2Cl)n1C(C)CCC(C)C (stereo not given)
IC50 (PBLUC_HILL_SLOPE 3.23, PBLUC_R_SQUARED 0.321, read-out: LUCIFERASE INFECTION ASSAY - IC50): 4.85 µM
IC90: 9.57 µM

CNc1nc(-c2cccnc2)nc2sc(-c3ccccc3)cc12
IC50 (PBLUC_HILL_SLOPE 3.26, PBLUC_R_SQUARED 0.654, read-out: LUCIFERASE INFECTION ASSAY - IC50): 6.22 µM
IC90: > 10 µM

CN(C)CCNC(=O)c1ccc(-c2cn3c(-c4ccc5c(ccn5C)c4)cnc3cn2)cc1
IC50 (PBLUC_HILL_SLOPE 3.24, PBLUC_R_SQUARED 0.242, read-out: LUCIFERASE INFECTION ASSAY - IC50): > 7.53 µM
IC90: > 7.53 µM

C=CCN(C(=O)c1cccc(C)c1[N+](=O)[O-])c1nc2c(s1)CCCC2
IC50 (PBLUC_HILL_SLOPE 3.27, PBLUC_R_SQUARED 0.266, read-out: LUCIFERASE INFECTION ASSAY - IC50): 9.32 µM
IC90: > 10 µM

CC(=O)Nc1ccc(Nc2cc3[nH]c(-c4cccc(F)c4)cc3cn2)cc1
IC50 (PBLUC_HILL_SLOPE 3.2, PBLUC_R_SQUARED 0.299, read-out: LUCIFERASE INFECTION ASSAY - IC50): 4.6 µM
IC90: 9.16 µM
